≈ marks a conversion by molar mass, not a printed value.

One assay deals with Staphylococcus aureus. Put plainly: Antimicrobial activity against methicillin-susceptible Staphylococcus aureus ATCC 29213 after 16 to 20 hrs by microdilution method. Type of assay: functional. (Dilution methods test growth across graded concentrations, often in twofold steps.)
In turn, `O=C(NC[C@H]1CN(c2ccc(N3CCOCC3)c(F)c2)C(=O)O1)Nc1ccccc1` showed an MIC above 100 µg/mL.

In turn, `O=C1O[C@@H](CNC(=S)Nc2ccc([N+](=O)[O-])cc2)CN1c1ccc(N2CCOCC2)c(F)c1` gave an MIC of 2 µg/mL (≈ 4.21 µM).

Turning to `COc1ccc(NC(=O)NC[C@H]2CN(c3ccc(N4CCOCC4)c(F)c3)C(=O)O2)cc1`, the MIC is above 100 µg/mL.

`O=C1O[C@@H](CNC(=S)Nc2ccccc2)CN1c1ccc(N2CCOCC2)c(F)c1` yielded an MIC of 10 µg/mL (≈ 23.2 µM).

For the compound `O=C(NC[C@H]1CN(c2ccc(N3CCOCC3)c(F)c2)C(=O)O1)Nc1ccc([N+](=O)[O-])cc1`, the MIC is above 100 µg/mL.

Turning to `COc1ccc(NC(=S)NC[C@H]2CN(c3ccc(N4CCOCC4)c(F)c3)C(=O)O2)cc1`, the MIC is above 100 µg/mL.

Turning to `CC(=O)NC[C@H]1CN(c2ccc(N3CCOCC3)c(F)c2)C(=O)O1` [LINEZOLID], the MIC stood at 1 µg/mL (≈ 2.96 µM).

Another assay relates to Staphylococcus aureus. As to the kind of experiment: Antimicrobial activity against methicillin-resistant Staphylococcus aureus ATCC 43300 after 16 to 20 hrs by microdilution method. It is filed as functional.
Regarding `O=C1O[C@@H](CNC(=S)Nc2ccc([N+](=O)[O-])cc2)CN1c1ccc(N2CCOCC2)c(F)c1`, the MIC was determined as 1 µg/mL (≈ 2.1 µM).

Take `CC(=O)NC[C@H]1CN(c2ccc(N3CCOCC3)c(F)c2)C(=O)O1` [LINEZOLID]: the MIC worked out at 1 µg/mL (≈ 2.96 µM).

As usually defined, the MIC is the least concentration at which growth counts as inhibited. Lower therefore signals greater potency.

(Values after ChEMBL document CHEMBL2434861, “Novel promising linezolid analogues: rational design, synthesis and biological evaluation” (2013).)
